The record followed here is article PMC4671274 (Molecular microbiology, 2015).

For orientation: Km means the substrate concentration at which the rate is half of its maximum.

This assay concerns the target Rv0888 (SpmT) (Mycobacterium tuberculosis, UniProt P9WKQ1).

Rv0888 (SpmT), sequence (P9WKQ1 32-490 limits assumed): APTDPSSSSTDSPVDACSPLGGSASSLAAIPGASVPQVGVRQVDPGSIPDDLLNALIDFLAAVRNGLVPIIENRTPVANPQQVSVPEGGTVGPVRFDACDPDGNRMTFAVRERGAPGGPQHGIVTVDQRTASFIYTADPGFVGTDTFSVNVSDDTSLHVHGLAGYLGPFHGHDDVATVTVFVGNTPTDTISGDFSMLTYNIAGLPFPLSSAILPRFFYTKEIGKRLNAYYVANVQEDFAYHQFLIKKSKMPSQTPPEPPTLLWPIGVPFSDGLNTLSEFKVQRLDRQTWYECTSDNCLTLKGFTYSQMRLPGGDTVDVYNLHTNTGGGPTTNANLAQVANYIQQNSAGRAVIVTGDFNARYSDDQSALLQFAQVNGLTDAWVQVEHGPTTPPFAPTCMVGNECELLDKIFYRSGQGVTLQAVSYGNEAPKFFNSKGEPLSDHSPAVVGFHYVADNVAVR

Take sphingomyelin: the Km turned out to be 671 µM.
